Measurements: DBAASP
Values after ≈ are worked out from the molar mass of the structure shown. Values belong to the molecule of their own block, whether it stands above or below them.

How the values were obtained:
Assay in all cases: ≥ marks a high value that may be exact or a test limit, other limits are often not marked, values filed in µg/mL are converted to µM
Bacillus subtilis 168 = test system: Bacillus subtilis 168
[1] = test system: Staphylococcus aureus USA 300
[2] = test system: Pseudomonas aeruginosa PAO1
[3] = test system: Mycobacterium tuberculosis H37Ra
[4] = test system: Staphylococcus aureus NRS 72
[5] = test system: Escherichia coli DH5alpha
[6] = test system: Salmonella enterica subsp. enterica serovar Typhimurium ATCC 14028
[7] = test system: Bacillus subtilis CMCC 63501
[8] = test system: Escherichia coli CICC 10670
[9] = test system: Staphylococcus aureus ATCC 6538
[10] = test system: Listeria monocytogenes ATCC 19115
[11] = test system: Staphylococcus aureus SH1000
[12] = test system: Candida albicans FRR 5580
[13] = test system: Escherichia coli ATCC 25922
[14] = test system: Staphylococcus aureus ATCC 25923
[15] = test system: Pseudomonas aeruginosa ATCC 9027
Escherichia coli W3110 = test system: Escherichia coli W3110
[16] = test system: Klebsiella pneumoniae ATCC BAA-1705
[17] = test system: Pseudomonas aeruginosa ATCC 27853
[18] = test system: Klebsiella pneumoniae ATCC 700603
[19] = test system: Enterococcus faecium ATCC 700221
[20] = test system: Salmonella enterica ATCC 6539
[21] = test system: Staphylococcus aureus ATCC 43300
[22] = test system: Acinetobacter baumannii ATCC BAA-747
Escherichia coli TOP 10 = test system: Escherichia coli TOP 10
[23] = test system: Staphylococcus aureus ATCC BAA-2312
[24] = test system: Staphylococcus aureus ATCC 12600
[25] = test system: Enterococcus faecium ATCC 19434
[26] = test system: Klebsiella pneumoniae ATCC BAA-2814
[27] = test system: Klebsiella pneumoniae ATCC 49472
[28] = test system: Enterococcus faecalis ATCC 51299
[29] = test system: Escherichia coli ATCC 35218
[30] = test system: Staphylococcus aureus FDA 486
[31] = test system: Staphylococcus aureus ATCC 29213
[32] = test system: Staphylococcus aureus 2844
[33] = test system: Pseudomonas aeruginosa 15159

Structure (SMILES): CC(C)C[C@H](NC(=O)[C@H](Cc1c[nH]c2ccccc12)NC(=O)[C@H](CCCCN)NC(=O)[C@H](CCCN=C(N)N)NC(=O)[C@H](Cc1c[nH]c2ccccc12)NC(=O)[C@@H](NC(=O)CNC(=O)[C@@H](NC(=O)[C@H](Cc1c[nH]c2ccccc12)NC(=O)[C@H](CCCN=C(N)N)NC(=O)[C@H](CCCCN)NC(=O)[C@H](Cc1c[nH]c2ccccc12)NC(=O)[C@@H](N)CC(C)C)C(C)C)C(C)C)C(N)=O [LWKRWVGVWRKWL]
MIC (Bacillus subtilis 168): 0.6 µM (≈ 1.09 µg/mL)
MIC [1]: 7 µM (≈ 12.7 µg/mL)
MIC [2]: 20 µM (≈ 36.2 µg/mL)
MIC [3]: 20 µM (≈ 36.2 µg/mL)
MIC [4]: 5 µM (≈ 9.06 µg/mL)
MIC [5]: 10 µM (≈ 18.1 µg/mL)

Structure (SMILES): CC(C)C[C@H](NC(=O)[C@H](Cc1ccccc1)NC(=O)[C@@H](NC(=O)[C@H](CC(C)C)NC(=O)[C@H](CC(=O)O)NC(=O)[C@H](CCCCN)NC(=O)[C@H](C)NC(=O)[C@@H](NC(=O)[C@H](CC(C)C)NC(=O)[C@@H](NC(=O)[C@H](C)N)[C@@H](C)O)[C@@H](C)O)[C@@H](C)O)C(=O)N[C@@H](CCC(N)=O)C(=O)N[C@@H](CC(=O)O)C(=O)N[C@@H](Cc1ccc(O)cc1)C(=O)N[C@@H](CCCCN)C(=O)N[C@@H](CCCCN)C(=O)N[C@H](C(=O)N[C@@H](CCCCN)C(=O)N[C@@H](CCCCN)C(=O)N[C@@H](CCCN=C(N)N)C(=O)N[C@H](C(=O)N[C@@H](CCCCN)C(=O)O)C(C)C)[C@@H](C)O [ATLTAKDLTFLQDYKKTKKRVK]
MIC [6]: 20 µM (≈ 51.9 µg/mL)
MIC [7]: 10 µM (≈ 26 µg/mL)
MIC [8]: ≥ 40 µM
MIC [9]: 20 µM (≈ 51.9 µg/mL)
MIC [10]: 20 µM (≈ 51.9 µg/mL)

Structure (SMILES): CC[C@H](C)[C@H](NC(=O)[C@H](CC(=O)O)NC(=O)[C@H](Cc1ccccc1)NC(=O)[C@H](CC(C)C)NC(=O)[C@@H](N)CCCCN)C(=O)N[C@H](C(=O)N[C@@H](CCCCN)C(=O)N[C@@H](CCCCN)C(=O)N[C@H](C(=O)N[C@H](C(=O)NCC(=O)N[C@@H](C)C(=O)N[C@@H](CC(C)C)C(=O)NCC(N)=O)C(C)C)C(C)C)C(C)C [KLFDIVKKVVGALG]
MIC [11]: ≥ 100 µM

Structure (SMILES): CC[C@H](C)[C@H](N)C(=O)N[C@@H](CC(C)C)C(=O)N[C@@H](Cc1c[nH]c2ccccc12)C(=O)N[C@@H](C)C(=O)N[C@@H](CS)C(=O)N[C@@H](Cc1c[nH]c2ccccc12)C(=O)NCC(=O)N[C@@H](CC(C)C)C(=O)N[C@@H](CCCCN)C(=O)N[C@@H](CC(C)C)C(=O)N[C@@H](CC(C)C)C(=O)N[C@@H](CCCN=C(N)N)C(=O)N[C@@H](Cc1ccc(O)cc1)C(=O)N[C@@H](CCCN=C(N)N)C(=O)N[C@@H](CCCN=C(N)N)C(=O)N[C@H](C(=O)N[C@@H](Cc1ccc(O)cc1)C(=O)O)[C@@H](C)CC [ILWACWGLKLLRYRRIY]
MIC (Escherichia coli W3110): 16 µM (≈ 35.6 µg/mL)
MIC [16]: ≥ 128 µM

Structure (SMILES): CC[C@H](C)[C@H](NC(=O)[C@H](CCC(N)=O)NC(=O)[C@H](CO)NC(=O)[C@H](C)NC(=O)[C@H](CC(C)C)NC(=O)[C@H](Cc1cnc[nH]1)NC(=O)[C@@H](NC(=O)[C@H](CC(C)C)NC(=O)[C@H](CC(C)C)NC(=O)[C@H](CCC(=O)O)NC(=O)[C@H](CCCCN)NC(=O)CNC(=O)[C@H](C)NC(=O)CNC(=O)[C@H](CCCCN)NC(=O)[C@H](Cc1ccccc1)NC(=O)[C@H](Cc1ccccc1)NC(=O)[C@H](CC(=O)O)NC(=O)[C@H](CC(C)C)NC(=O)[C@H](CC(C)C)NC(=O)CN)[C@@H](C)O)C(N)=O [GLLDFFKGAGKELLTHLASQI]
MIC [17]: > 125 µM
MIC [6]: 125 µM (≈ 282 µg/mL)
MIC [23]: ≥ 250 µM
MIC [24]: ≥ 250 µM
MIC [25]: ≥ 250 µM
MIC [26]: ≥ 125 µM
MIC [27]: ≥ 125 µM
MIC [28]: ≥ 250 µM
MIC [29]: ≥ 62.5 µM

The next lines start with the values.

MIC [12]: ≥ 114 µM
MIC [13]: 29.1 µM (≈ 64 µg/mL)
MIC [14]: 29.1 µM (≈ 64 µg/mL)
MIC [15]: 29.1 µM (≈ 64 µg/mL)
Structure (SMILES): NC(=O)[C@H](CCCN=C(N)N)NC(=O)[C@H](CCCN=C(N)N)NC(=O)[C@H](Cc1c[nH]c2ccccc12)NC(=O)[C@H](Cc1c[nH]c2ccccc12)NC(=O)[C@H](CCCN=C(N)N)NC(=O)[C@H](Cc1c[nH]c2ccccc12)NC(=O)[C@H](Cc1c[nH]c2ccccc12)NC(=O)[C@H](CCCN=C(N)N)NC(=O)[C@H](Cc1c[nH]c2ccccc12)NC(=O)[C@H](CCCN=C(N)N)NC(=O)[C@H](CCCN=C(N)N)NC(=O)[C@H](CCCN=C(N)N)NC(=O)[C@@H](N)CCCN=C(N)N [RRRRWRWWRWWRR]

MIC [17]: 33 µM (≈ 31.9 µg/mL)
MIC [13]: 17 µM (≈ 16.5 µg/mL)
MIC [18]: 66 µM (≈ 63.9 µg/mL)
MIC [19]: 8 µM (≈ 7.75 µg/mL)
MIC [20]: 8 µM (≈ 7.75 µg/mL)
MIC [21]: 66 µM (≈ 63.9 µg/mL)
MIC [22]: ≥ 132 µM
Structure (SMILES): NC(=O)[C@H](CCCN=C(N)N)NC(=O)[C@H](CS)NC(=O)[C@H](Cc1ccc(O)cc1)NC(=O)[C@H](Cc1c[nH]c2ccccc12)NC(=O)[C@H](CCCN=C(N)N)NC(=O)[C@@H](N)Cc1c[nH]c2ccccc12 [WRWYCR]

MIC (Escherichia coli TOP 10): 10.7 µM (≈ 25 µg/mL)
Structure (SMILES): CC[C@H](C)[C@H](N)C(=O)N[C@@H](CC(C)C)C(=O)N1CCC[C@H]1C(=O)N[C@@H](CC(C)C)C(=O)N[C@@H](CC(C)C)C(=O)N[C@@H](CCCCN)C(=O)N[C@@H](CCCCN)C(=O)N[C@@H](Cc1ccccc1)C(=O)NCC(=O)N[C@@H](CCCCN)C(=O)N[C@@H](CCCCN)C(=O)N[C@@H](Cc1ccccc1)C(=O)NCC(=O)N[C@@H](CCCCN)C(=O)N[C@@H](CCCCN)C(=O)N[C@H](C(=O)N[C@@H](Cc1c[nH]c2ccccc12)C(=O)N[C@@H](CCCCN)C(=O)N[C@@H](C)C(=O)N[C@@H](CC(C)C)C(N)=O)C(C)C [ILPLLKKFGKKFGKKVWKAL]

MIC [17]: 10 µM (≈ 22.2 µg/mL)
MIC [30]: 5 µM (≈ 11.1 µg/mL)
MIC [31]: 10 µM (≈ 22.2 µg/mL)
MIC [32]: 5 µM (≈ 11.1 µg/mL)
MIC [33]: 10 µM (≈ 22.2 µg/mL)
Structure (SMILES): CC[C@H](C)[C@H](NC(=O)[C@H](CCCN=C(N)N)NC(=O)[C@H](CCC(N)=O)NC(=O)[C@@H](NC(=O)[C@@H](NC(=O)[C@H](CCCN=C(N)N)NC(=O)[C@H](CCCCN)NC(=O)[C@H](Cc1ccccc1)NC(=O)[C@H](CCC(=O)O)NC(C)=O)[C@@H](C)CC)C(C)C)C(=O)N[C@@H](CCCCN)C(=O)N[C@@H](CC(=O)O)C(=O)N[C@@H](Cc1ccccc1)C(=O)N[C@@H](CC(C)C)C(=O)N[C@@H](CCCN=C(N)N)C(=O)N[C@@H](CC(N)=O)C(=O)N[C@@H](CC(C)C)C(=O)N[C@H](C(N)=O)C(C)C [EFKRIVQRIKDFLRNLV]
